Measured values as given in PMC6481325, “Novel N,N-dialkyl cyanocinnamic acids as monocarboxylate transporter 1 and 4 inhibitors” (Oncotarget, 2019).
“Also recorded” adds a separate entry of the source. Read-outs that look alike come from different tables or passages of the source.

Columns and labels:
[1] = tested on: MCT4 expressing MDA-MB-231 cells; test: Seahorse XFe96 mitochondrial stress test (OCR), MDA-MB-231; format: cell-based; conditions: 30 μM
Description: (§1) Extracellular acidification rates (ECAR) and oxygen consumption rates (OCR) were recorded in real-time for glycolysis stress test (GST) and mitochondrial stress test (MST), respectively, using Agilent Seahorse XFe96® analyzer.

[2] = tested on: MDA-MB-231 tumor xenograft; test: Tumor growth inhibition, MDA-MB-231 xenograft model; format: in vivo; conditions: SCID mice
Description: Figure 6 In vivo xenograft studies in WiDr and MDA-MB-231 tumor models (A) WiDr tumor xenograft study of compound 3 and compound 9. Mice (n = 8) were treated with 8 mg/kg of compound 3, intraperitoneally, two times a day. (B) Tumor growth inhibition study with compound 9 in MDA-MB-231 tumor xenograft model (n = 6). Mice were treated with compound 9 (70 mg/kg, ip, bid until day-4; qd from day-5), a combination of 9 and doxorubicin (0.5 mg/kg, ip, five days a week), and doxorubicin. (C) Tumor growth inhibition based on isolated tumor mass. ^*P < 0.05, ^**P < 0.01, ^***P < 0.001, ^****P < 0.0001. Schematic representation of (D) untreated tumor cells and (E) inhibition of MCT1 and MCT4 and decreased glycolysis and mitochondrial OxPhos in compound 9 treated tumor cells. Upward hollowed arrow indicates “increase” in function/amount and downward hollowed arrow indicates “decrease” in function/amount.
Group-1 was administered with compound 9, group-2 was given a combination of compound 9 and clinical breast cancer drug doxorubicin (AKSci catalog # E518), and group-3 was treated with doxorubicin alone. Group-4 was assigned as a control group and treated with vehicle (10% DMSO in saline). The treatment was continued up to 18 days and on day 20, the mice were euthanized and tumor masses isolated and weighed. […] Due to these reasons, higher dosages of compound 9 were required to produce significant anticancer efficacy in vivo. In all these studies, <20% of body weight loss was observed.
Tumor cells suspended in 1:1 matrigel-PBS were injected on right flank of female SCID mice (n = 6 mice/group, 10^7 MDA-MB-231 cells) or right flank of female athymic nude mice (n = 8 mice/group, 5 × 10^6 WiDr cells). Tumors were measured using calipers every 2–3 days and tumor volumes were calculated using the formula V = ab^2/2 where ‘a’ is the long diameter of the tumor and ‘b’ is the short diameter of the tumor. Tumor growth inhibition was determined using the formula % inhibition = [(C – T)/C] × 100 where C is average tumor weight of the control group and T is the average tumor weight of the test group.

MCT4 = molecular target: T1, MCT4 (Homo sapiens, UniProt O15427); test: L-[14C]-lactate uptake study in MCT4 expressing MDA-MB-231 cells; format: cell-based; conditions: read-out: MCT4 IC50
T1 construct: These cells predominantly express MCT4 as confirmed by Western blot and quantitative PCR analysis; host or cells: MDA-MB-231
T1 sequence (O15427 2-465 limits assumed): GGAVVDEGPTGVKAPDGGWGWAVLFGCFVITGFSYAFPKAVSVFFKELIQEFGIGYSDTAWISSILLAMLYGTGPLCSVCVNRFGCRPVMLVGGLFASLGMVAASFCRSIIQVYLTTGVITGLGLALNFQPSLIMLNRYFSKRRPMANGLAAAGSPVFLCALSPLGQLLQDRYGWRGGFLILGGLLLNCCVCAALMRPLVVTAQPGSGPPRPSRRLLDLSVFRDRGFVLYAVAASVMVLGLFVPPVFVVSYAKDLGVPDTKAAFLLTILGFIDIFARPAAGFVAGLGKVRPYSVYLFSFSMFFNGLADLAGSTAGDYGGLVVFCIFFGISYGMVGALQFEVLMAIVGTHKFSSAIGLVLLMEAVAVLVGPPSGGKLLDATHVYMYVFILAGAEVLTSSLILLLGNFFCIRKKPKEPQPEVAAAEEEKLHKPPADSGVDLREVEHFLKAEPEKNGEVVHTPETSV
T1 sequence (P35613 140-385 partner limits assumed): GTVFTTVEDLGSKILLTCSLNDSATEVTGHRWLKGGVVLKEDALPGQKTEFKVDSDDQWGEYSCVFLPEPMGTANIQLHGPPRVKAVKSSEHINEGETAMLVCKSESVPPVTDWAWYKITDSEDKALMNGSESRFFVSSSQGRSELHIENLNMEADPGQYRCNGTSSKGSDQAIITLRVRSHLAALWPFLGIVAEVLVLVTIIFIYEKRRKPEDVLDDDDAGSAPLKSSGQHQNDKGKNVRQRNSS
Description: In this study, an L-[^14C]-lactate based transport assay was developed by us to quantify MCT4 transport and its inhibition by test compounds. […] For the MCT4 transport assay, the pH of HEPES buffer with L-[^14C]-lactate was adjusted to 7.0 such that lactate influx into the cells was aided by the pH gradient. […] Test compounds were diluted to working concentration in HEPES buffer (140 mM NaCl, 5 mM KCl, 2 mM CaCl2, 2 mM MgCl2, 10 mM HEPES, pH 7.0) containing 3 μM L-[^14C]-lactate (Perkin Elmer) and 2 μM L-lactate. […] HEPES buffer was replaced with 250 μL test solution. After 1 hour, media was replaced with 500 μL ice-cold stop buffer (0.1 mM CHC solution in HBS, pH 7.4) and the plates were placed on ice. Cells were washed twice with ice-cold stop buffer and solubilized using 250 μL of 0.1 M NaOH in 5% Triton-X (Millipore Sigma). A 150 μL aliquot from each well was added to 4 mL EcoLite(+)™ scintillation fluid (MP Biomedicals) and radioactivity was determined by scintillation spectrometry. Inhibition by each test solution was calculated as a percentage of the maximum control uptake. CHC and dimethylsulfoxide (DMSO) were used as controls. […]

[3] = tested on: MCT1 expressing WiDr cells; test: Seahorse XFe96 glycolysis stress test (ECAR), WiDr; format: cell-based; conditions: 30 μM
Description: (§2) In the GST, three parameters namely glycolysis, glycolytic capacity and glycolytic reserve were measured.
as §1

[4] = tested on: MCT4 expressing MDA-MB-231 cells; test: Seahorse XFe96 glycolysis stress test (ECAR), MDA-MB-231; format: cell-based; conditions: 30 μM
Description: as §2, §1

WiDr tumor xenograft = tested on: WiDr tumor xenograft; set-up: method as in ref 32, 33 = [32]; PMID 26005533; doi:10.1021/acsmedchemlett.5b00049; 32 Gurrapu S Jonnalagadda SK Alam MA Nelson GL Sneve MG Drewes LR Mereddy VR Monocarboxylate transporter 1 inhibitors as potential anticancer agents ACS Med Chem Lett 2015 6 558 61 10.1021/acsmedcheml || [33]; 33 Mereddy VR Drewes LR Alam MA Jonnalagadda SK Gurrapu S Therapeutic Compounds US 9296728B2 United States Patent and Trademark Office 2016 https://app.dimensions.ai/details/patent/US-9296728-B2; conditions: mice, three weeks; cited from earlier work

COc1cc(N(c2ccccc2)c2ccccc2)ccc1/C=C(\C#N)C(=O)O [Phenyl (9)]
ATP production (MST, OCR) [1]: significantly decreased | maximal respiration (MST, OCR) [1]: significantly decreased | proton leak (MST, OCR) [1]: significantly increased | spare respiratory capacity (MST, OCR) [1]: significantly decreased | tumor growth inhibition based on tumor volume ([2]; 9 70 mg/kg ip bid until day-4, qd from day-5, doxorubicin 0.5 mg/kg ip five days a week, treatment up to 18 days): 58% | tumor growth inhibition based on isolated tumor weights ([2]; same regimens, tumors isolated on day 20): 56% | IC50 (MCT4; Figure 1A and text, lactate uptake): 23 nM | IC50 (MCT4; Supplementary Table 1, average ± SEM): 18 ± 8 nM | glycolytic capacity (GST, ECAR) [3]: decreased; also recorded: significant decrease | glycolytic reserve (GST, ECAR) [3]: completely arrested; also recorded: significant decrease | glycolytic capacity (GST, ECAR) [4]: decreased | glycolytic reserve (GST, ECAR) [4]: completely arrested | tumor growth reduction (WiDr tumor xenograft): 33%
